Data taken from EP4725551A1, “FUSION POLYPEPTIDE AJ007 AND USE THEREOF” (Nanjing Anji Biotechnology Co., Ltd., priority 2023, dated 2026).
Read-outs that look alike come from different tables or passages of the source. Residues, ends and D or L forms follow the SMILES beside them.

How the values were obtained:
[1] = Ocular tissue distribution at equimolar concentration after eye dropping or intravitreal injection, ELISA (Example 5); type: in vivo, C57BL/6J mice; details: for active molecules that can reach the RPE/choroid complex: 5 µL per eye; for active molecules that can reach the RPE/choroid complex / maintenance time at the RPE/choroid complex: equimolar concentration
Method: Experimental process: All the mice in the eye drop groups were administered bilateral eye drops 1 time, with 5 µL of the corresponding drug solution in each eye. At the 6 time points of 0 h, 1 h, 3 h, 7 h, 12 h, and 24 h after the completion of administration, the mice in the corresponding groups were respectively subjected to eyeball removal and blood collection, the collected whole blood was immediately centrifuged at 6,000 rpm for 5 minutes, and then, a supernatant was sucked and stored as a sample to be tested. Additionally, 3 tissue sites, namely the vitreous body, the retina, and the RPE/choroid complex, were isolated from an eyeball under a stereomicroscope, into which a phosphate buffer solution (PBS) was added at 1:10 for dilution, followed by grinding and centrifugation at 12,000 rpm for 5 minutes. A supernatant was sucked to serve as a sample to be tested. Subsequently, the concentration of the fusion polypeptide AJ007 or the multifunctional fusion polypeptide VI (HM-1) in each tissue was detected by an enzyme-linked immunosorbent assay (ELISA) method. The ELISA method is as follows: • (1) coating: diluting HM-1 with a certain concentration of a coating solution (CBS) to 1 µg/mL, adding the diluted solution into a microplate at 100 µL per well, and standing overnight at 4°C; • (2) plate washing: discarding the coating solution, adding 265 µL of a PBST washing solution to each well, washing 3 times for 3 minutes each time, and beating to dryness; • (3) blocking: adding 200 µL of a 1% BSA blocking solution to each well, placing the solution in a water bath at 37°C for 1.5 hours, repeating the plate washing process, and beating to dryness; • (4) addition of a sample to be tested and an antibody: first, adding 100 µL of the sample to be tested to a microplate, then adding 100 µL of an HM-1 monoclonal antibody dilution solution at a certain concentration, setting 2-3 replicate wells, shaking uniformly on a shaker at 37°C for 2 minutes, then transferring the mixture to a water bath pot for placement at 37°C for 2 hours, taking out the mixture after a thorough reaction, and repeating the plate washing process; • (5) reaction with an enzyme-labeled secondary antibody: adding a certain concentration of HRP enzyme-labeled goat anti-mouse IgG at 100 µL per well for incubation at 37°C for 1.5 hours, repeating the plate washing process, and beating to dryness; • (6) addition of a substrate: adding 100 µL of a TMB substrate chromogenic solution to each well for color development at room temperature in the dark for a certain period of time; • (7) termination: adding 50 µL of a termination solution to each well to terminate the reaction; and • (8) detection: reading an OD value of each well at 450 nm using a microplate reader.
This example provides an ocular tissue distribution comparison experiment of the polypeptide eye drops (AJ007 eye drops) in Example 2 with an equimolar concentration of the multifunctional fusion polypeptide VI (HM-1), a multifunctional fusion polypeptide VI preparation (HM-1 preparation, with a polypeptide being HM-1 and a formulation of other auxiliary materials being the same as the AJ007 eye drops), a fusion polypeptide AJ007 preparation (TAT-HM-1, with a polypeptide being AJ007 and pure water as a vehicle) after eye dropping, and the multifunctional fusion polypeptide VI (HM-1) after intravitreal injection, which is specifically described below.
Animal grouping: […] C57BL/6J mice were randomly divided into a total of 7 time point groups, including 0 h, 10 min, 1 h, 3 h, 7 h, 12 h, and 24 h, with 2 mice in each group.
Experimental process: All the mice in the eye drop administration groups were administered bilateral eye drops 1 time, with 5 µL of a corresponding drug solution dropped into each eye, while 5 µL of a corresponding drug solution was injected into both eyes in the HM-1 intravitreal injection group. […]

[2] = cited from earlier work

C[C@H](NC(=O)CNC(=O)[C@H](CCCNC(=N)N)NC(=O)[C@H](CCCNC(=N)N)NC(=O)[C@H](CCCNC(=N)N)NC(=O)[C@H](CCCNC(=N)N)NC(=O)[C@H](CCC(N)=O)NC(=O)[C@H](CCCNC(=N)N)NC(=O)[C@H](CCCNC(=N)N)NC(=O)[C@H](CCCCN)NC(=O)[C@H](CCCCN)NC(=O)[C@H](CCCNC(=N)N)NC(=O)CNC(=O)[C@@H](N)Cc1ccc(O)cc1)C(=O)N[C@@H](CC(=O)O)C(=O)N[C@@H](CCCNC(=N)N)C(=O)N[C@@H](C)C(=O)NCC(=O)NCC(=O)NCC(=O)NCC(=O)N[C@@H](CCCNC(=N)N)C(=O)NCC(=O)N[C@@H](CC(=O)O)C(=O)O [AJ007] (H-YGRKKRRQRRRRGADRAGGGGRGD-OH)
ability to penetrate through the posterior segment of ocular, increase compared with HM-1 ([1]; eye dropping): approximately 600 times
active molecules that can reach the RPE/choroid complex ([1]; single eye dropping): 6291.38 ng/mL
active molecules that can reach the RPE/choroid complex ([1]; single eye dropping, listed as TAT-HM-1): 843.28 ng/mL
maintenance time at the RPE/choroid complex ([1]; single eye dropping): the maintenance time is also shorter

C[C@H](NC(=O)CNC(=O)[C@@H](N)CCCNC(=N)N)C(=O)N[C@@H](CC(=O)O)C(=O)N[C@@H](CCCNC(=N)N)C(=O)N[C@@H](C)C(=O)NCC(=O)NCC(=O)NCC(=O)NCC(=O)N[C@@H](CCCNC(=N)N)C(=O)NCC(=O)N[C@@H](CC(=O)O)C(=O)O [HM-1, Arg-Gly-Ala-Asp-Arg-Ala-Gly-Gly-Gly-Gly-Arg-Gly-Asp] (H-RGADRAGGGGRGD-OH)
active molecules that can reach the RPE/choroid complex ([1]; intravitreal injection): approximately 5729.7 ng/mL
maintenance time at the RPE/choroid complex ([1]; intravitreal injection): the maintenance time is shorter
active molecules that can reach the RPE/choroid complex ([1]; single eye dropping): less than 10 ng/mL
maintenance time at the RPE/choroid complex ([1]; single eye dropping): very short

axitinib
concentration reaching the retina after eye dropping, increase ([2]; in vivo): 5-10 times

bevacizumab
ability to penetrate through and enter the posterior segment of the eye after eye dropping, increase ([2]; after linking to a cell-penetrating peptide CPP): approximately 10 times

ranibizumab
concentration reaching the retina after eye dropping, increase ([2]; after linking to a cell-penetrating peptide, patents CN114073774A, CN114668717A): approximately 100 times
